Assay results: paper PMC6691788, “Design and synthesis of phthalazine-based compounds as potent anticancer agents with potential antiangiogenic activity via VEGFR-2 inhibition” (Journal of Enzyme Inhibition and Medicinal Chemistry, 2019)

Assays:
[1] = tested on: CCRF-CEM; assay: NCI 60 cell panel SRB screen; assay type: cell-based, human; details: for TGI / GI50 / CC50: 5 log dose; for GI50 / CC50 / activity at 10 µM: Homo sapiens; for CC50: 48 h, read-out: LC50 (the source's name); for activity at 10 µM: single dose 10 μM, read-out: percent cell growth promotion
[2] = tested on: EKVX; assay: NCI 60 cell panel SRB screen; assay type: cell-based, human; details: for GI50 / IC (TGI) / LC50: Homo sapiens, 5 log dose; for LC50: 48 h; for percent cell growth promotion: single dose 10 μM
[3] = tested on: HOP-92; assay: NCI 60 cell panel SRB screen; assay type: cell-based; details: Homo sapiens; for GI50 / IC (TGI) / CC50: HOP-92, 5 log dose; for CC50: 48 h, read-out: LC50 (the source's name); for activity at 10 µM: HOP-92, single dose 10 μM, read-out: percent cell growth promotion
[4] = tested on: NCI-H460; assay: NCI 60 cell panel SRB screen; assay type: cell-based; details: Homo sapiens; for GI50 / IC (TGI) / LC50 (concentration causing 50% cell kill): NCI-H460, 5 log dose; for LC50 (concentration causing 50% cell kill): 48 h; for activity at 10 µM: NCI-H460, single dose 10 μM, read-out: percent cell growth promotion
[5] = tested on: SF-539; assay: NCI 60 cell panel SRB screen; assay type: cell-based, human; details: for GI50 / IC (TGI) / CC50: Homo sapiens, SF-539, 5 log dose; for CC50: 48 h, read-out: LC50 (the source's name); for percent cell growth promotion: SF-539, single dose 10 μM
[6] = tested on: LOX IMVI; assay: NCI 60 cell panel SRB screen; assay type: cell-based; details: Homo sapiens; for CC50: 5 log dose, 48 h, read-out: LC50 (the source's name); for IC (TGI): read-out: TGI; for activity at 10 µM: read-out: percent cell growth promotion
[7] = tested on: SK-MEL-2; assay: NCI 60 cell panel SRB screen; assay type: cell-based; details: for GI50 / IC (TGI) / CC50: Homo sapiens; for IC (TGI): read-out: TGI; for CC50: SK-MEL-2, 5 log dose, 48 h, read-out: LC50 (the source's name); for percent cell growth promotion: SK-MEL-2, single dose 10 μM
[8] = tested on: SK-MEL-5; assay: NCI 60 cell panel SRB screen; assay type: cell-based; details: Homo sapiens; for GI50: SK-MEL-5; for IC (TGI): SK-MEL-5, read-out: TGI; for activity at 10 µM: SK-MEL-5, read-out: percent cell growth promotion; for CC50: SK-MEL-5, 5 log dose, 48 h, read-out: LC50 (the source's name)
[9] = tested on: UACC-257; assay: NCI 60 cell panel SRB screen; assay type: cell-based; details: Homo sapiens; for GI50: UACC-257; for IC (TGI): UACC-257, read-out: TGI; for activity at 10 µM: UACC-257, read-out: percent cell growth promotion; for CC50: UACC-257, 5 log dose, 48 h, read-out: LC50 (the source's name)
[10] = tested on: OVCAR-3; assay: NCI 60 cell panel SRB screen; assay type: cell-based; details: Homo sapiens; for GI50 / IC (TGI) / CC50: OVCAR-3, 5 log dose; for CC50: 48 h, read-out: LC50 (the source's name); for activity at 10 µM: OVCAR-3, single dose 10 μM, read-out: percent cell growth promotion
[11] = tested on: OVCAR-4; assay: NCI 60 cell panel SRB screen; assay type: cell-based; details: Homo sapiens; for GI50 / IC (TGI) / CC50: OVCAR-4, 5 log dose; for CC50: 48 h, read-out: LC50 (the source's name); for activity at 10 µM: OVCAR-4, single dose 10 μM, read-out: percent cell growth promotion
[12] = tested on: SK-OV-3; assay: NCI 60 cell panel SRB screen; assay type: cell-based; details: Homo sapiens; for GI50 / IC (TGI) / CC50: SK-OV-3, 5 log dose; for CC50: 48 h, read-out: LC50 (the source's name); for activity at 10 µM: SK-OV-3, single dose 10 μM, read-out: percent cell growth promotion
[13] = tested on: SN12C; assay: NCI 60 cell panel SRB screen; assay type: cell-based; details: Homo sapiens; for GI50 / IC (TGI) / CC50: 5 log dose; for CC50: 48 h, read-out: LC50 (the source's name); for activity at 10 µM: single dose 10 μM, read-out: percent cell growth promotion
[14] = target: T1, VEGFR-2 tyrosine kinase (Homo sapiens, UniProt P35968); assay: In vitro VEGFR-2 tyrosine kinase assay (BPS Bioscience); assay type: biochemical; details: read-out: VEGFR-2 % inhibition; 10 μM concentration
T1 construct: purchased BPS Bioscience 40301
In short: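 For IC50, ADP formation after a 30-min 30 °C reaction was detected by ADP-Glo luminescence in duplicate, blank-subtracted and fitted as log inhibitor versus normalised response. The 10 µM single-dose test instead measured remaining ATP (Kinase-Glo Plus) after 40 min at 30 °C with poly(Glu,Tyr) substrate, 10 μM ATP, pH 7.4, 1% DMSO.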

[15] = tested on: full NCI 60 cell panel; assay: NCI 60 cell panel SRB screen, whole panel; assay type: cell-based, human; details: for GI50: Homo sapiens, 60 cell, NCI 5-log dose, full 60 cell panel, read-out: GI50 values, range over the tested cell lines

T1 sequence (P35968 20-1356): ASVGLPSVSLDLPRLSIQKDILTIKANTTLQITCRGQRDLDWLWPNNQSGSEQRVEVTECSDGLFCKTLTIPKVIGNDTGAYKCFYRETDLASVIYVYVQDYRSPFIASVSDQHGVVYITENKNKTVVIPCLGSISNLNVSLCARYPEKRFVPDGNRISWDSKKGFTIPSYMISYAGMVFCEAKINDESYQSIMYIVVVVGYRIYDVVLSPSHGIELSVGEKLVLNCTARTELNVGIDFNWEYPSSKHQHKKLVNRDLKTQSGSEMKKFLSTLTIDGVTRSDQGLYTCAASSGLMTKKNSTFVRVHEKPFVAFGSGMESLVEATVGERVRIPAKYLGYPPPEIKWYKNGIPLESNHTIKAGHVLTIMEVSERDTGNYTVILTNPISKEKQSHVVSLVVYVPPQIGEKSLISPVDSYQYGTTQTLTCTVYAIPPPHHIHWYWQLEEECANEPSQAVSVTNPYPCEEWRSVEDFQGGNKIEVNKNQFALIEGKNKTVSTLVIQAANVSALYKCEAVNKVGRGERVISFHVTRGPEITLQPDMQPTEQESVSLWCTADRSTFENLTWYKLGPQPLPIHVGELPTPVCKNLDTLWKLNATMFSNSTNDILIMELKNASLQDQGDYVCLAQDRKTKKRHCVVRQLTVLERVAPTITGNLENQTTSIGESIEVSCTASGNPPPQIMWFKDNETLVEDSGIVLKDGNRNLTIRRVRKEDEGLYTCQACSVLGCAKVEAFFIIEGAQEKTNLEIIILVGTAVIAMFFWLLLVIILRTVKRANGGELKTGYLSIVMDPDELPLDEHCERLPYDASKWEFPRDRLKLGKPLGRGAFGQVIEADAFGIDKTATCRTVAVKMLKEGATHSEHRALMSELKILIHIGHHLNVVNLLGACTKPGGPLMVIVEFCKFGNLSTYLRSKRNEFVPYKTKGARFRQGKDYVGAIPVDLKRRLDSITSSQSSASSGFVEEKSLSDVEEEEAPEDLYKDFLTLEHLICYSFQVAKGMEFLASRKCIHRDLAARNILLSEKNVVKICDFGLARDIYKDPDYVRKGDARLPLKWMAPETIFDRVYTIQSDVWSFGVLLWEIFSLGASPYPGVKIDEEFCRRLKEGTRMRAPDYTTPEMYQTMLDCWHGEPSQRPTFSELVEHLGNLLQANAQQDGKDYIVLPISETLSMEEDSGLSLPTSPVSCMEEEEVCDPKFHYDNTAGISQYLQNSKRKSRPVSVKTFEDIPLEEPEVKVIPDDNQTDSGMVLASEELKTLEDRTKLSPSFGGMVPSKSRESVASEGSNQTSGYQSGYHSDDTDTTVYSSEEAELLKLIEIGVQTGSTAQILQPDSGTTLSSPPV

With `O=C(Nc1ccccc1)Nc1ccc(Oc2nnc(Cl)c3ccccc23)cc1` [Compound 13a, 1–(4-(4-Chlorophthalazin-1-yloxy)phenyl)-3-phenylurea] the TGI [1] was over 25 µM, the GI50 [1] was 4.44 µM and the CC50 [1] was over 25 µM. The activity at 10 µM [1] was 47.6%, the GI50 [2] was 2.31 µM and the IC (TGI) [2] was 12.1 µM. For the same molecule, the LC50 [2] was over 25 µM, the “percent cell growth promotion” value [2] was 29.96% and the GI50 [3] was 3.09 µM. The IC (TGI) [3] was 11.3 µM, the CC50 [3] was over 25 µM and the activity at 10 µM [3] was -7.51%. The GI50 [4] was 2.67 µM, the IC (TGI) [4] was 8.65 µM and the LC50 (concentration causing 50% cell kill) [4] was over 25 µM. The activity at 10 µM [4] was 25.2%, the GI50 [5] was 2.81 µM and the IC (TGI) [5] was 6.4 µM. The CC50 [5] was 14.6 µM, the “percent cell growth promotion” value [5] was -22.02% and the GI50 [6] was 3.46 µM. The CC50 [6] was 13.4 µM, the IC (TGI) [6] was 6.08 µM and the activity at 10 µM [6] was 32.1%. For the same molecule, the GI50 [7] was 3.9 µM, the IC (TGI) [7] was 13.2 µM and the CC50 [7] was over 25 µM. For the same molecule, the “percent cell growth promotion” value [7] was 9.53%, the GI50 [8] was 4.56 µM and the IC (TGI) [8] was 18.6 µM. The activity at 10 µM [8] was 32.9%, the CC50 [8] was over 25 µM and the GI50 [9] was 3.96 µM. For the same molecule, the IC (TGI) [9] was over 25 µM, the activity at 10 µM [9] was 22% and the CC50 [9] was over 25 µM. The GI50 [10] was 2.64 µM, the IC (TGI) [10] was 5.97 µM and the CC50 [10] was 13.5 µM. For the same molecule, the activity at 10 µM [10] was 25.4%, the GI50 [11] was 1.73 µM and the IC (TGI) [11] was 12.2 µM. It also gave a CC50 [11] of over 25 µM, an activity at 10 µM [11] of 0.22% and a GI50 [12] of 1.46 µM. For the same molecule, the IC (TGI) [12] was 5.51 µM, the CC50 [12] was 16.6 µM and the activity at 10 µM [12] was -0.5%. The GI50 [13] was 6.72 µM, the IC (TGI) [13] was over 25 µM and the CC50 [13] was over 25 µM. For the same molecule, the activity at 10 µM [13] was 53.7%, the inhibition at 10 µM [14] was 24% and the GI50 [15] was 0.15 to 8.41 µM.

For `Clc1ccc(Nc2nnc(CNc3ccccc3)c3ccccc23)cc1` [Compound 16a, N-(4-Chlorophenyl)-4-((phenylamino)methyl)phthalazin-1-amine], the TGI [1] was 17.6 µM, the GI50 [1] was 3.53 µM and the CC50 [1] was over 25 µM. For the same molecule, the activity at 10 µM [1] was 12.4%, the GI50 [2] was 1.61 µM and the IC (TGI) [2] was 15 µM. The LC50 [2] was over 25 µM, the “percent cell growth promotion” value [2] was 16.86% and the GI50 [3] was 0.77 µM. It also gave an IC (TGI) [3] of 6.29 µM, a CC50 [3] of over 25 µM and an activity at 10 µM [3] of -19.4%. For the same molecule, the GI50 [4] was 3.21 µM, the IC (TGI) [4] was 9.98 µM and the LC50 (concentration causing 50% cell kill) [4] was over 25 µM. For the same molecule, the activity at 10 µM [4] was 17.6%, the GI50 [5] was 3.67 µM and the IC (TGI) [5] was 8.1 µM. For the same molecule, the CC50 [5] was 17.8 µM, the “percent cell growth promotion” value [5] was 33.99% and the GI50 [6] was 1.57 µM. It also gave a CC50 [6] of 11.4 µM, an IC (TGI) [6] of 4.97 µM and an activity at 10 µM [6] of 12.1%. For the same molecule, the GI50 [7] was 2.16 µM, the IC (TGI) [7] was 5.83 µM and the CC50 [7] was 14.5 µM. For the same molecule, the “percent cell growth promotion” value [7] was 8.63%, the GI50 [8] was 2.08 µM and the IC (TGI) [8] was 5.27 µM. It also gave an activity at 10 µM [8] of -69.1%, a CC50 [8] of 11.8 µM and a GI50 [9] of 2.74 µM. For the same molecule, the IC (TGI) [9] was 6.87 µM, the activity at 10 µM [9] was -6.49% and the CC50 [9] was 17.2 µM. It also gave a GI50 [10] of 3.51 µM, an IC (TGI) [10] of 8.69 µM and a CC50 [10] of 21.5 µM. It also gave an activity at 10 µM [10] of -1.64%, a GI50 [11] of 3 µM and an IC (TGI) [11] of over 25 µM. It also gave a CC50 [11] of over 25 µM, an activity at 10 µM [11] of 19.3% and a GI50 [12] of 3.17 µM. For the same molecule, the IC (TGI) [12] was 11.4 µM, the CC50 [12] was over 25 µM and the activity at 10 µM [12] was 22%. The GI50 [13] was 3.95 µM, the IC (TGI) [13] was 18.9 µM and the CC50 [13] was over 25 µM. It also gave an activity at 10 µM [13] of 28.9%, an inhibition at 10 µM [14] of 47% and a GI50 [15] of 0.15 to 8.41 µM. The “sensitivity in the 5 log dose assay, in words” value ([15]; NCI 5 log dose) was “insensitive to prostate and MCF-7 breast cancer cell lines”.
